In patent publication US20060153912A1 (BASF Aktiengesellschaft, priority 2002, published 2006):

Experiments:
[1] = Color stability of 50% strength water/methanol solutions stirred at reflux (65° C.) in air, Gardner/Hazen color number
[2] = Color stability of 10% strength solutions in water/methanol (1:1), 7 h at 65° C., with and without stabilizer; type: physicochemical; settings: 10% strength solution in water/methanol (1:1), no additive
Experimental: The experiments took place under the following conditions: 10% strength solutions in water/methanol (1:1)—7 h at 65° C.

[3] = 50% choline ascorbate solution, additive 1% by weight, reaction time 4 h
[4] = 50% solution in 1:1 water/methanol, without additive, reaction time 0 h
[5] = 50% solution in 1:1 water/methanol, without additive, reaction time 1 h
[6] = 50% solution in 1:1 water/methanol, without additive, reaction time 7 h
[7] = 50% choline ascorbate solution, additive 1% by weight, reaction time 3 h
[8] = 50% choline ascorbate solution, additive 1% by weight, reaction time 5 h

For O=C(O)CCCC[C@@H](S)CCS (racemic) [Dihydrolipoic acid], the “Color number Gardner” value [1, 3] was 0.2 and the “Color number Hazen” value [1, 3] was 53.
With C[N+](C)(C)CCO.O=C([O-])C(O)C(O)C(=O)O (stereo not drawn) [Choline bitartrate] the “Color number Gardner” value [1, 4] was 0.1, the “Color number Hazen” value [1, 4] was 27 and the “Color number Gardner” value [1, 5] was 0.1. For the same molecule, the “Color number Hazen” value [1, 5] was 30, the “Color number Gardner” value [1, 6] was 0.1 and the “Color number Hazen” value [1, 6] was 28. For the same molecule, the “Color number Gardner” value [2] was 0.1 and the “Color number Hazen” value [2] was 32.
For C[N+](C)(C)CCO.[Cl-] [Choline chloride], the “Color number Gardner” value [2] was 0.1 and the “Color number Hazen” value [2] was 35.
In the case of N[C@@H](CS)C(=O)O [Cysteine], the “Color number Gardner” value [1, 3] is reported as 0.1 and the “Color number Hazen” value [1, 3] is reported as 35.
With N[C@@H](CCC(=O)N[C@@H](CS)C(=O)NCC(=O)O)C(=O)O [Glutathione] the “Color number Gardner” value [1, 3] was 0.4 and the “Color number Hazen” value [1, 3] was 122.
With O=C1O[C@H]([C@@H](O)CO)C(O)=C1O [L-(+)-Ascorbic acid] the “Color number Gardner” value [1, 4] was 0.1, the “Color number Hazen” value [1, 4] was 27 and the “Color number Gardner” value [1, 5] was 0.1. For the same molecule, the “Color number Hazen” value [1, 5] was 31, the “Color number Gardner” value [1, 6] was 0.1 and the “Color number Hazen” value [1, 6] was 29. The “Color number Gardner” value [2] was 0.1 and the “Color number Hazen” value [2] was 27.
With CC(=O)N[C@@H](CS)C(=O)O [N-Acetylcysteine] the “Color number Gardner” value [1, 3] was 0.9 and the “Color number Hazen” value [1, 3] was 162.
For OB(O)c1ccccc1 [Phenylboronic acid], the “Color number Gardner” value [1, 3] was 2.7 and the “Color number Hazen” value [1, 3] was 589.
For OP(O)O [Phosphorous acid], the “Color number Gardner” value [1, 3] was 0.7 and the “Color number Hazen” value [1, 3] was 163.
With O=C1O[C@H]([C@@H](O)CO)C([O-])=C1O.[Na+] [Sodium ascorbate] the “Color number Gardner” value [1, 4] was 0.1, the “Color number Hazen” value [1, 4] was 26 and the “Color number Gardner” value [1, 5] was 0.1. The “Color number Hazen” value [1, 5] was 28, the “Color number Gardner” value [1, 6] was 0.1 and the “Color number Hazen” value [1, 6] was 31. For the same molecule, the “Color number Gardner” value [2] was 0.1 and the “Color number Hazen” value [2] was 31.
For O=c1[nH]c(=O)c2[nH]c(=O)[nH]c2[nH]1 [Uric acid], the “Color number Gardner” value [1, 7] was 0.9, the “Color number Hazen” value [1, 7] was 162 and the “Color number Gardner” value [1, 8] was 1.4. For the same molecule, the “Color number Hazen” value [1, 8] was 237.
